# pKi: −log10 of the molar value.
# Molecular target: Norepinephrine transporter (Rattus norvegicus, UniProt Q9JIA2)
smiles,measurement,value
"CN1Cc2c(N)cccc2[C@H](c2ccccc2)C1 [(+/-)-2-Methyl-4-phenyl-1,2,3,4-tetrahydro-isoquinolin-8-ylamine]",pKi,7.80

# Source: BindingDB's records for doi:10.1016/0028-3908(88)90149-9 (Organon International, 1988)
